Read-outs that look alike come from different tables or passages of the source.
Columns and labels:
[1] = test system: barnyardgrass (Echinochloa crus-galli); assay: Test A postemergence; type: in vivo; details: Echinochloa crus-galli, post-emergence, 240 h; for pest or weed control at 125 g/ha: 125 g ai/ha; for pest or weed control at 500 g/ha: 500 g ai/ha, visual injury, approx. 10 d
In short: (§1)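 Seeds sprayed preemergence with a directed soil spray, or plants at 2 to 10 cm height and one- to two-leaf stage sprayed postemergence, with test chemicals in a non-phytotoxic solvent mixture containing surfactant, in loam soil–sand blend. Injury rated visually against untreated controls after about 10 d in greenhouse, 0 (no effect) to 100 (complete control).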

[2] = test system: Galium (catchweed bedstraw, Galium aparine); assay: Test A postemergence; type: in vivo; details: Galium, post-emergence, 240 h, 125 g ai/ha, postemergence; visual injury after approximately 10 d; 0 to 100 scale (0 no effect, 100 complete control); read-out: Plant response rating, Galium
In short: as §1

[3] = test system: ragweed (common ragweed, Ambrosia elatior); assay: Test A postemergence; type: in vivo; details: Ambrosia artemisiifolia, post-emergence, 240 h, 125 g ai/ha, postemergence; visual injury after approximately 10 d; 0 to 100 scale (0 no effect, 100 complete control); read-out: Plant response rating, Ragweed
In short: as §1

corn (Zea mays) [4] = assay: Test A postemergence; type: in vivo; details: Zea mays, post-emergence, 240 h; for plant injury at 125 g/ha / Corn plant response rating (crop injury, 0 = no effect, 100 = complete kill) at 500 g/ha: Postemergence; for plant injury at 125 g/ha: visual rating about 10 d after treatment, read-out: Corn plant response rating (0 to 100 scale); for Corn plant response rating (crop injury, 0 = no effect, 100 = complete kill) at 500 g/ha: 500 g ai/ha, visual injury, approx. 10 d
In short: as §1

[5] = test system: barnyardgrass (Echinochloa crus-galli); assay: Test G Post-Emergence Protocol; type: in vivo; details: Echinochloa crus-galli, post-emergence, 312 h; for pest or weed control at 15.625 g/ha: 15.625 g ai/ha, evaluated after 13 days (100=total damage to plant; 0=no damage to plant), read-out: Barnyardgrass damage rating; for pest or weed control at 62.5 g/ha: 62.5 g ai/ha, read-out: Barnyardgrass damage rating (100=total damage to plant; 0=no damage to plant); for pest or weed control at 62.5 g/ha / pest or weed control at 250 g/ha: evaluated after 13 days; for pest or weed control at 250 g/ha: 250 g ai/ha, read-out: damage to plant, Barnyardgrass (100=total damage to plant; 0=no damage to plant)
Method: (§2) Seeds of corn (Zea mays), giant foxtail (Setaria faberi), barnyardgrass (Echinochloa crus-galli), ivy-leaved morning glory (Ipomoea hederacea), redroot pigweed (Amaranthus retroflexus) and velvetleaf (Abutilon theophrasti) were sown in standard soil in pots. After cultivation for 8 days under controlled conditions in a glasshouse (at 24/16° C., day/night; 14 hours light; 65% humidity), the plants were sprayed with an aqueous spray solution derived from the formulation of the technical active ingredient in acetone/water (50:50) solution containing 0.5% Tween 20 (polyoxyethylene sorbitan monolaurate, CAS RN 9005-64-5) to give a final dose of 15.625, 62.5 or 250 g/ha of test compound.
(§3) The test plants were then grown on under controlled conditions in a glasshouse (at 24/16° C., day/night; 14 hours light; 65% humidity) and watered twice daily. After 13 days the test was evaluated (100=total damage to plant; 0=no damage to plant). A dash (-) means no test result.

[6] = test system: redroot pigweed (Amaranthus retroflexus); assay: Test G Post-Emergence Protocol; type: in vivo; details: Amaranthus retroflexus, post-emergence, 312 h; for pest or weed control at 15.625 g/ha: 15.625 g ai/ha, evaluated after 13 days (100=total damage to plant; 0=no damage to plant), read-out: Pigweed, Redroot damage rating; for pest or weed control at 62.5 g/ha: 62.5 g ai/ha, read-out: Pigweed, Redroot damage rating (100=total damage to plant; 0=no damage to plant); for pest or weed control at 62.5 g/ha / pest or weed control at 250 g/ha: evaluated after 13 days; for pest or weed control at 250 g/ha: 250 g ai/ha, read-out: damage to plant, Pigweed, Redroot (100=total damage to plant; 0=no damage to plant)
Method: as §2, §3

[7] = test system: giant foxtail (Setaria faberi); assay: Test G Post-Emergence Protocol; type: in vivo; details: Setaria faberi, post-emergence, 312 h; for pest or weed control at 15.625 g/ha: 15.625 g ai/ha, evaluated after 13 days (100=total damage to plant; 0=no damage to plant), read-out: Foxtail, Giant damage rating; for pest or weed control at 62.5 g/ha: 62.5 g ai/ha, read-out: Foxtail, Giant damage rating (100=total damage to plant; 0=no damage to plant); for pest or weed control at 62.5 g/ha / pest or weed control at 250 g/ha: evaluated after 13 days; for pest or weed control at 250 g/ha: 250 g ai/ha, read-out: damage to plant, Foxtail, Giant (100=total damage to plant; 0=no damage to plant)
Method: as §2, §3

[8] = test system: velvetleaf (Abutilon theophrasti); assay: Test G Post-Emergence Protocol; type: in vivo; details: Abutilon theophrasti, post-emergence, 312 h; for pest or weed control at 15.625 g/ha: 15.625 g ai/ha, evaluated after 13 days (100=total damage to plant; 0=no damage to plant), read-out: Velvetleaf damage rating; for pest or weed control at 62.5 g/ha: 62.5 g ai/ha, read-out: Velvetleaf damage rating (100=total damage to plant; 0=no damage to plant); for pest or weed control at 62.5 g/ha / pest or weed control at 250 g/ha: evaluated after 13 days; for pest or weed control at 250 g/ha: 250 g ai/ha, read-out: damage to plant, Velvetleaf (100=total damage to plant; 0=no damage to plant)
Method: as §2, §3

[9] = test system: ivy-leaved morning glory (Ipomoea hederacea); assay: Test G Post-Emergence Protocol; type: in vivo; details: Ipomoea, post-emergence, 312 h; for pest or weed control at 15.625 g/ha: 15.625 g ai/ha, evaluated after 13 days (100=total damage to plant; 0=no damage to plant), read-out: Morningglory, Ivy-leaved damage rating; for pest or weed control at 62.5 g/ha: 62.5 g ai/ha, read-out: Morningglory, Ivy-leaved damage rating (100=total damage to plant; 0=no damage to plant); for pest or weed control at 62.5 g/ha / pest or weed control at 250 g/ha: evaluated after 13 days; for pest or weed control at 250 g/ha: 250 g ai/ha, read-out: damage to plant, Morningglory, Ivy-leaved (100=total damage to plant; 0=no damage to plant)
Method: as §2, §3

corn (Zea mays) [10] = assay: Test G Post-Emergence Protocol; type: in vivo; details: Zea mays, post-emergence, 312 h; for plant injury at 15.625 g/ha: 15.625 g ai/ha, evaluated after 13 days (100=total damage to plant; 0=no damage to plant), read-out: Corn damage rating; for plant injury at 62.5 g/ha: 62.5 g ai/ha, read-out: Corn damage rating (100=total damage to plant; 0=no damage to plant); for plant injury at 62.5 g/ha / plant injury at 250 g/ha: evaluated after 13 days; for plant injury at 250 g/ha: 250 g ai/ha, read-out: damage to plant, Corn (100=total damage to plant; 0=no damage to plant)
Method: as §2, §3

[11] = Postemergence, visual rating about 10 d after treatment, read-out: Barnyardgrass plant response rating (0 to 100 scale, 0 no effect, 100 complete control)
[12] = Postemergence, 0 to 100 scale (0 no effect, 100 complete control), read-out: Plant response rating, Barnyardgrass
[13] = 0 to 100 scale (0 no effect, 100 complete control)

Structure (SMILES) | melting point [°C] | pest or weed control at 15.625 g/ha [5] [%] | pest or weed control at 62.5 g/ha [5] [%] | pest or weed control at 250 g/ha [5] [%] | pest or weed control at 15.625 g/ha [6] [%] | pest or weed control at 62.5 g/ha [6] [%] | pest or weed control at 250 g/ha [6] [%] | pest or weed control at 15.625 g/ha [7] [%] | pest or weed control at 62.5 g/ha [7] [%] | pest or weed control at 250 g/ha [7] [%] | pest or weed control at 15.625 g/ha [8] [%] | pest or weed control at 62.5 g/ha [8] [%] | pest or weed control at 250 g/ha [8] [%] | pest or weed control at 15.625 g/ha [9] [%] | pest or weed control at 62.5 g/ha [9] [%] | pest or weed control at 250 g/ha [9] [%] | plant injury at 15.625 g/ha (corn (Zea mays) [10]) [%] | plant injury at 62.5 g/ha (corn (Zea mays) [10]) [%] | plant injury at 250 g/ha (corn (Zea mays) [10]) [%] | also measured
CN1CC(c2cccc(OC/C=C/Cl)c2)C(C(=O)Nc2cccc(F)c2F)C1=O (stereo not drawn) [Compound 772] | 146 to 150 | – | – | – | – | – | – | – | – | – | – | – | – | – | – | – | – | – | – | pest or weed control at 125 g/ha ([1]; postemergence, visual injury after approximately 10 d, 0 to 100 scale (0 no effect, 100 complete control), read-out: Plant response rating, Barnyardgrass): 0%; pest or weed control at 125 g/ha [2]: 0%; pest or weed control at 125 g/ha [3]: 0%; Corn plant response rating (crop injury, 0 = no effect, 100 = complete kill) at 125 g/ha (corn (Zea mays) [4]; 125 g ai/ha, postemergence, visual injury after approximately 10 d, 0 to 100 scale (0 no effect, 100 complete control)): 0%
CN1C[C@H](c2cccc(C(C)(C)C#N)c2)[C@@H](C(=O)Nc2cccc(F)c2F)C1=O (racemic) [Compound 1497] | – | 20 | 60 | 60 | 0 | 0 | 0 | 30 | 60 | 60 | 0 | 0 | 20 | 0 | 0 | 10 | 10 | 0 | 50 | –
CN1C[C@@H](c2ccc(C(F)(F)F)cc2)[C@H](C(=O)Nc2ncc(C(F)(F)F)s2)C1=O (racemic) [Compound 1504] | – | 0 | 0 | 0 | 0 | 0 | 0 | 0 | 0 | 0 | 0 | 0 | 0 | 0 | 0 | 0 | 0 | 0 | 0 | –
O=C1NCC(c2ccccc2)C1C(=O)Nc1ccc(C(F)(F)F)cc1 (stereo not drawn) [Compound 1362] | 221 to 223 | – | – | – | – | – | – | – | – | – | – | – | – | – | – | – | – | – | – | pest or weed control at 125 g/ha [1, 11]: 0%; pest or weed control at 500 g/ha [1, 12]: 0%; plant injury at 125 g/ha (corn (Zea mays) [4]; 125 g ai/ha): 0%; Corn plant response rating (crop injury, 0 = no effect, 100 = complete kill) at 500 g/ha (corn (Zea mays) [4]; [13]): 0%
O=C1NCC(c2ccccc2)C1C(=O)Nc1cc(F)ccc1F (stereo not drawn) [Compound 1359] | 147 to 149 | – | – | – | – | – | – | – | – | – | – | – | – | – | – | – | – | – | – | pest or weed control at 125 g/ha [1, 11]: 0%; pest or weed control at 500 g/ha [1, 12]: 0%; plant injury at 125 g/ha (corn (Zea mays) [4]; 125 g ai/ha): 0%; Corn plant response rating (crop injury, 0 = no effect, 100 = complete kill) at 500 g/ha (corn (Zea mays) [4]; [13]): 0%
CN1C[C@@H](c2ccc(C(F)(F)F)cc2)[C@H](C(=O)Nc2ccnc(Cl)c2Cl)C1=O (racemic) [Compound 1503] | – | 0 | 10 | 10 | 0 | 0 | 0 | 0 | 20 | 40 | 0 | 0 | 0 | 0 | 0 | 0 | 0 | 10 | 10 | –
CN1C[C@@H](c2ccc(C(F)(F)F)cc2)[C@H](C(=O)Nc2cnccc2C(F)(F)F)C1=O (racemic) [Compound 1401] | – | 0 | 20 | 50 | 0 | 0 | 30 | 0 | 60 | 70 | 0 | 20 | 30 | 0 | 0 | 30 | 0 | 0 | 50 | –

Reference: patent US12077503B2, “Substituted cyclic amides and their use as herbicides” (FMC CORPORATION, priority 2015, dated 2024)
